According to ChEMBL document CHEMBL4387706, “Discovery of Novel Spiroindoline Derivatives as Selective Tankyrase Inhibitors” (J Med Chem, 2019):
Active and inactive are the calls of the source. The rule behind the calls is not given here.

Columns and labels:
[1] = target: T1, Poly [ADP-ribose] polymerase tankyrase-1 (Homo sapiens, UniProt O95271)
T1 sequence (O95271 whole entry): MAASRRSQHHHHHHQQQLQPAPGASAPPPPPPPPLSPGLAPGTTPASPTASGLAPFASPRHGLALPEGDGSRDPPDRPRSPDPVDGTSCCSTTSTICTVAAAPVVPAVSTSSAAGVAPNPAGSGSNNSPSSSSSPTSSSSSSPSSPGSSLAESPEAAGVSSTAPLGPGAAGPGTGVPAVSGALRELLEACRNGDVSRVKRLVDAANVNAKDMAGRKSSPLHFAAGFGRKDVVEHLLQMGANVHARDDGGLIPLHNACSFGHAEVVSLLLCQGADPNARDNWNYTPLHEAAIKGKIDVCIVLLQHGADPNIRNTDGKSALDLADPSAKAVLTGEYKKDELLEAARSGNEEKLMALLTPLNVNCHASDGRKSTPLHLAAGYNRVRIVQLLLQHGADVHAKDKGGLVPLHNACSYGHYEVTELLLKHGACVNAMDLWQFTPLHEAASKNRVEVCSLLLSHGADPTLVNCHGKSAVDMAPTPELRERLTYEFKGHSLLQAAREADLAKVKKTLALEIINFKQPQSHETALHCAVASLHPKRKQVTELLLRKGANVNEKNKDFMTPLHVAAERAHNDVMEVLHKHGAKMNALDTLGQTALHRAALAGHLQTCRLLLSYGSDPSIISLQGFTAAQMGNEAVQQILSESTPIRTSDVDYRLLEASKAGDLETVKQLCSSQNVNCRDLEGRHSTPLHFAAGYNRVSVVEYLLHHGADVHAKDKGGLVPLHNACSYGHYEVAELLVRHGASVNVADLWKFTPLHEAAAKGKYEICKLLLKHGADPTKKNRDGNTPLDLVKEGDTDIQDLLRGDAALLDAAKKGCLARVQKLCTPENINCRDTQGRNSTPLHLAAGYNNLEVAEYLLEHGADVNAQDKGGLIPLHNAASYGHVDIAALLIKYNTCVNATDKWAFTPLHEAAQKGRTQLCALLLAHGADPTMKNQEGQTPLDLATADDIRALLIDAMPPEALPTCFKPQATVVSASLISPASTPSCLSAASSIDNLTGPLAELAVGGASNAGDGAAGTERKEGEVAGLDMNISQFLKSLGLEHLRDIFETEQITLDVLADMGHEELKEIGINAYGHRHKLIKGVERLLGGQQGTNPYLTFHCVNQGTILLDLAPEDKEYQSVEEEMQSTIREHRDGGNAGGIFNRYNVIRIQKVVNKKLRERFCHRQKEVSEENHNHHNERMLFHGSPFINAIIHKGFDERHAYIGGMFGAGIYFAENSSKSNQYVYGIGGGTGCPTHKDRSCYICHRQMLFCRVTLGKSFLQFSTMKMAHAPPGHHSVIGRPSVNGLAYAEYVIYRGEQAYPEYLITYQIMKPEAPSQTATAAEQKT
Description: Inhibition of recombinant human N-terminal TEV cleavage site-fused/FLAG-poly his-tagged TNKS SAM-PARP domain (1024 to 1327 residues) expressed in Escherichia coli assessed as reduction in auto-PARylation preincubated for 10 mins followed by biotinylated-NAD+ addition and measured after 45 mins by ELISA

[2] = target: Cannabinoid receptor 2 (Homo sapiens) (UniProt P34972); test: Displacement of [3H]WIN55212-2 from full-length recombinant human CB2 receptor expressed in human Chem1 cells at 10 uM measured after 90 mins by scintillation counting method relative to control; assay type: cell-based
[3] = target: Mu-type opioid receptor (Homo sapiens) (UniProt P35372); test: Displacement of [3H]diprenorphine from full-length recombinant human MOR expressed in CHOK1 cells at 10 uM measured after 60 mins by scintillation counting method relative to control; assay type: cell-based
[4] = target: D(2) dopamine receptor (Homo sapiens) (UniProt P14416); test: Displacement of [3H]spiperone from full-length recombinant human D2S receptor expressed in CHO cells at 10 uM measured after 120 mins by scintillation counting method relative to control; assay type: cell-based
[5] = target: GABA-A receptor; anion channel (Rattus norvegicus) (UniProt O09028+P15431+P18506+P18508+P19969+P20236+P23574+P23576+P28471+P28473+P30191+P62813+P63079+P63138+Q91ZM7+Q9ES14); test: Displacement of [3H]flunitrazepam from GABAA receptor in Wistar rat brain at 10 uM measured after 60 mins by scintillation counting method relative to control; assay type: tissue-based
[6] = target: hERG (KCNH2) (Homo sapiens, UniProt Q12809); test: Displacement of [3H]dofetilide from full-length recombinant human ERG receptor expressed in HEK293 cells at 10 uM measured after 60 mins by scintillation counting method relative to control; assay type: cell-based; settings: HEK293 cells expressing recombinant human ERG, probe [3H]dofetilide
[7] = Half life in ICR mouse at 50 mg/kg, ip; assay type: ADME, organism-based; settings: in vivo
[8] = target: Neuronal acetylcholine receptor; alpha4/beta2 (Homo sapiens) (UniProt P17787+P43681); test: Displacement of [3H]cytisine from full-length recombinant human alpha4/beta2 nACHR expressed in human SH-SY5Y cells at 10 uM measured after 120 mins by scintillation counting method relative to control; assay type: cell-based
[9] = target: Sodium-dependent noradrenaline transporter (Homo sapiens) (UniProt P23975); test: Displacement of [125I]RTI-55 from full-length recombinant human NET receptor expressed in MDCK cells at 10 uM measured after 3 hrs by scintillation counting method relative to control; assay type: cell-based
[10] = target: Beta-1 adrenergic receptor (Homo sapiens) (UniProt P08588); test: Displacement of [125I]cyanopindolol from full-length recombinant human beta1 receptor expressed in CHOK1 cells at 10 uM measured after 120 mins by scintillation counting method relative to control; assay type: cell-based
[11] = species: Homo sapiens; test: Effect on hippo signaling protein in human COLO320DM cells assessed as change in CYR61 expression at 0.033 to 1 uM measured after 48 hrs by RT-PCR analysis; assay type: cell-based
[12] = Toxicity in mouse xenografted with human COLO320DM cells assessed as body weight loss at 150 mg/kg, ip administered twice daily for 11 days; assay type: organism-based; settings: in vivo, 264 h
[13] = target: Endothelin-1 receptor (Homo sapiens) (UniProt P25101); test: Displacement of [125I]Endothelin1 from full-length recombinant human ETA receptor expressed in CHOK1 cells at 10 uM measured after 120 mins by scintillation counting method relative to control; assay type: cell-based
[14] = target: Tankyrase 1/2 (Homo sapiens) (UniProt Q9H2K2+O95271); test: Inhibition of TNKS/TNKS2-mediated beta-catenin signaling in human COLO320DM cells assessed as down regulation of AXIN2 mRNA expression at 0.033 to 1 uM measured after 48 hrs by RT-PCR analysis; assay type: cell-based
[15] = target: Glucocorticoid receptor (Homo sapiens) (UniProt P04150); test: Displacement of [3H]dexamethasone from full-length recombinant human glucocorticoid receptor expressed in insect cells at 10 uM measured after 24 hrs by scintillation counting method relative to control
[16] = target: Acetylcholinesterase (Homo sapiens) (UniProt P22303); test: Inhibition of human recombinant full-length ACES expressed in HEK293 cells at 10 uM using acetylthiocholine iodide as substrate preincubated for 15 mins followed by substrate addition and measured after 20 mins by DTNB reagent based spectrophotometric method relative to control

Chain of Glucocorticoid receptor (Homo sapiens) (P04150 whole entry): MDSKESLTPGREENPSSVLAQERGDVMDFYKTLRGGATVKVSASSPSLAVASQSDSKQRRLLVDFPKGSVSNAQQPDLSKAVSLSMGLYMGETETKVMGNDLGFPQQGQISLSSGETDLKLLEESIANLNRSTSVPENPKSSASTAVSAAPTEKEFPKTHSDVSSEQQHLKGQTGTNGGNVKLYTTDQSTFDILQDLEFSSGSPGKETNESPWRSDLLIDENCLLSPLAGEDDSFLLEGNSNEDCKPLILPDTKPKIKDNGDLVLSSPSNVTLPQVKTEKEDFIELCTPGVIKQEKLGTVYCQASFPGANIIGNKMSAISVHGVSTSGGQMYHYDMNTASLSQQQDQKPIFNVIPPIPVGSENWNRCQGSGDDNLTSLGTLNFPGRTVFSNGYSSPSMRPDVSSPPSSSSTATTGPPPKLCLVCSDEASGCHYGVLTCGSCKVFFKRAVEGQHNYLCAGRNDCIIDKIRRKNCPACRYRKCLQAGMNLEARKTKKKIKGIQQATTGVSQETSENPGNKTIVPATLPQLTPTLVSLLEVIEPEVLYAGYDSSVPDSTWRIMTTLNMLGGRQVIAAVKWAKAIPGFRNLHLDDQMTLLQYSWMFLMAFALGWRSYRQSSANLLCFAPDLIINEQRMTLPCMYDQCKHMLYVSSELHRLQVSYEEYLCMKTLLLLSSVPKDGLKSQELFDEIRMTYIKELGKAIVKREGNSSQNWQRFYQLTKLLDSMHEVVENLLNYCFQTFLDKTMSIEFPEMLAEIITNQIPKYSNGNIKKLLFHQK
Chain of Cannabinoid receptor 2 (Homo sapiens) (P34972 whole entry): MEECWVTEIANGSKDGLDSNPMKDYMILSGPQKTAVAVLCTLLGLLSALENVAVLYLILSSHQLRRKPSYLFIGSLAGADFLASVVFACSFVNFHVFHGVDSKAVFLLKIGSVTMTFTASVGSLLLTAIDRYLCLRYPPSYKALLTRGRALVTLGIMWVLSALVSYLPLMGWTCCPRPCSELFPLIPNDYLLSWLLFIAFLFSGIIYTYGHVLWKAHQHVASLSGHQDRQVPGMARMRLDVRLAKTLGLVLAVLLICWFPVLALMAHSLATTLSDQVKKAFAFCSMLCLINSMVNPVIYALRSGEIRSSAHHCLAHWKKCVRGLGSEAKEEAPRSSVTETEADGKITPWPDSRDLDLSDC
Chain of D(2) dopamine receptor (Homo sapiens) (P14416 whole entry): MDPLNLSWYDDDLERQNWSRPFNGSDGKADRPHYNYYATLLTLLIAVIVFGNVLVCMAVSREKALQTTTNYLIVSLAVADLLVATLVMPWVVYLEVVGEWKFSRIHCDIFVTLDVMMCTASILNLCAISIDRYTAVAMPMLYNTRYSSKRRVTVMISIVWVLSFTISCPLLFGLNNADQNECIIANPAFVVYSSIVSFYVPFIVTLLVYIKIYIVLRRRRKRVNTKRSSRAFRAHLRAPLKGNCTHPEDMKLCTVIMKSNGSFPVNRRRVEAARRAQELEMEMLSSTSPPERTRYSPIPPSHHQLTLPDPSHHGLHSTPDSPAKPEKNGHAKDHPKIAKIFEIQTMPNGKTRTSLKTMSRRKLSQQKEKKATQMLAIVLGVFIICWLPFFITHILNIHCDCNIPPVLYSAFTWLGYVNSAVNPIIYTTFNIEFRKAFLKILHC
Chain of Tankyrase 1/2 (Homo sapiens) (Q9H2K2 whole entry, looked up, one chain of several): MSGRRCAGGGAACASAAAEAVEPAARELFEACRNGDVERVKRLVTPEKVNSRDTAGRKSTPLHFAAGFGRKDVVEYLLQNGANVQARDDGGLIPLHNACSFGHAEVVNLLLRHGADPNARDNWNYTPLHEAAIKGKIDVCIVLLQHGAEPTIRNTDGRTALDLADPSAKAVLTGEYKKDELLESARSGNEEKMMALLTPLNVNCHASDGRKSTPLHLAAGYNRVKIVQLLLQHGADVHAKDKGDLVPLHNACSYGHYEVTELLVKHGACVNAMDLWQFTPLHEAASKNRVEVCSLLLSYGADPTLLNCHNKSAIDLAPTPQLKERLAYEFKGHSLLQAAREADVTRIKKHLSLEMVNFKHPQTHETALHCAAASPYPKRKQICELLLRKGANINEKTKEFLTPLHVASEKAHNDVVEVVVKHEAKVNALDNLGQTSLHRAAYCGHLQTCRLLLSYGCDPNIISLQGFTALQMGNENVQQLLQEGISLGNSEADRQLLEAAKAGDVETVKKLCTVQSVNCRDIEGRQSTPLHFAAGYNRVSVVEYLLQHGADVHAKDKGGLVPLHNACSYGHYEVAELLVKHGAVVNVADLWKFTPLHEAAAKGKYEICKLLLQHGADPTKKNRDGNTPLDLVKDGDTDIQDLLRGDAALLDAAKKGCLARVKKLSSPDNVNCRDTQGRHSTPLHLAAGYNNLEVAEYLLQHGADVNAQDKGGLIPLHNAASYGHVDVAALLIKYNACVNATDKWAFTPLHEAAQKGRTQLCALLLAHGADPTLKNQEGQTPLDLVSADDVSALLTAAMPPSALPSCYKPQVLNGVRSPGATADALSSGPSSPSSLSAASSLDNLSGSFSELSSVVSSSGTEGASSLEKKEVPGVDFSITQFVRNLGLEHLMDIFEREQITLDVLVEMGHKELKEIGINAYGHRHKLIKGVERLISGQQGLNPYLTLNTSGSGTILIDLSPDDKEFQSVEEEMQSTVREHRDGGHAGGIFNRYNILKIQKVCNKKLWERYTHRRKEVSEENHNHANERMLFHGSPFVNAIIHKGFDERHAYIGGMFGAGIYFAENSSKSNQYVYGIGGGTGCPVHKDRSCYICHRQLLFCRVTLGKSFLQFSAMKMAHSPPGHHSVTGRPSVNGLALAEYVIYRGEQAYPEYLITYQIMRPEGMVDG
Chain of Sodium-dependent noradrenaline transporter (Homo sapiens) (P23975 whole entry): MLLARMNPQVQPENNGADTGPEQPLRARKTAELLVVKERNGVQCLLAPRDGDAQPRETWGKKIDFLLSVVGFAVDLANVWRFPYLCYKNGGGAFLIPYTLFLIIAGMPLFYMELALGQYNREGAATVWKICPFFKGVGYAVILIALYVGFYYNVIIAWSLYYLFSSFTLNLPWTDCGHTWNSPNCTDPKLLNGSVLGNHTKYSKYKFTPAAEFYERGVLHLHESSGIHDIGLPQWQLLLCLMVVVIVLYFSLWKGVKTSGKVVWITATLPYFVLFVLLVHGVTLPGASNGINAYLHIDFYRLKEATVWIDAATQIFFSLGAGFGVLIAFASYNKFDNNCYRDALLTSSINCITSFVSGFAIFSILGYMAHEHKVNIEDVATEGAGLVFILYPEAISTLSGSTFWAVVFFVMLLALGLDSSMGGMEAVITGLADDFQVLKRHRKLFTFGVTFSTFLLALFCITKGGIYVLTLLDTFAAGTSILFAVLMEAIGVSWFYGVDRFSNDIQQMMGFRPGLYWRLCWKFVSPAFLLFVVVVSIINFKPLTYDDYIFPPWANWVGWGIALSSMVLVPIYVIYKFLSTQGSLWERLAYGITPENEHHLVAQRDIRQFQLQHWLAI
Chain of hERG (KCNH2) (Q12809 whole entry): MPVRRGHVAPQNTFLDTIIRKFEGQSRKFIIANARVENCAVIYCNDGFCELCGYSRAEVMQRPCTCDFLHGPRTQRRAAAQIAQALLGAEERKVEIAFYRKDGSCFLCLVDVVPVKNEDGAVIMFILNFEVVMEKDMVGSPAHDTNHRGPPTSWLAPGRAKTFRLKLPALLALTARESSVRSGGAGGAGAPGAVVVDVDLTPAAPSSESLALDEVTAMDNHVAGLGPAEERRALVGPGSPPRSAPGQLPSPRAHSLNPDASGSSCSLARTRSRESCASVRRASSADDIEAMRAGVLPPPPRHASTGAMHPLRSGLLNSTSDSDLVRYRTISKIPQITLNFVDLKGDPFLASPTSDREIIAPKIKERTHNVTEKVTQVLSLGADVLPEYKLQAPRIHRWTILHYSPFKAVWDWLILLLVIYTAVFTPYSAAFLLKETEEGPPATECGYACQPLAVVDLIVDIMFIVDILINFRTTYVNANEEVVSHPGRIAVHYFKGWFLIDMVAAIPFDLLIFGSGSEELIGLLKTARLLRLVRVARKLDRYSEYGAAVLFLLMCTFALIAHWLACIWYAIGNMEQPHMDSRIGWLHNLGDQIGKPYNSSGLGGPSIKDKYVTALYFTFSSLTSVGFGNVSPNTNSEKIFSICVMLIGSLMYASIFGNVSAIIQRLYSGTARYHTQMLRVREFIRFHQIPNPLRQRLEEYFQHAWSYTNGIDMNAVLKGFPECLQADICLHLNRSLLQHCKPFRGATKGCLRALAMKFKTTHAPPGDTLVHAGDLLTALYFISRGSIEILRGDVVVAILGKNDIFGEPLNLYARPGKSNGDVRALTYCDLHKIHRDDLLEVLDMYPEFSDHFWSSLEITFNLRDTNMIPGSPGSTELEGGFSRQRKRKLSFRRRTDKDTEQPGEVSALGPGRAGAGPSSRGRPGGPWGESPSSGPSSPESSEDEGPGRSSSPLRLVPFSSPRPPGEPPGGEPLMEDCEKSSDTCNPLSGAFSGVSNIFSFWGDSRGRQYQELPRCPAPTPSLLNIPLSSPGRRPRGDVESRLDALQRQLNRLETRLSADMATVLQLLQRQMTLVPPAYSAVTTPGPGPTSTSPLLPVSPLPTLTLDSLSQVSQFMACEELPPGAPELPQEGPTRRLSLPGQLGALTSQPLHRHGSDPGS
Chain of Beta-1 adrenergic receptor (Homo sapiens) (P08588 whole entry, looked up): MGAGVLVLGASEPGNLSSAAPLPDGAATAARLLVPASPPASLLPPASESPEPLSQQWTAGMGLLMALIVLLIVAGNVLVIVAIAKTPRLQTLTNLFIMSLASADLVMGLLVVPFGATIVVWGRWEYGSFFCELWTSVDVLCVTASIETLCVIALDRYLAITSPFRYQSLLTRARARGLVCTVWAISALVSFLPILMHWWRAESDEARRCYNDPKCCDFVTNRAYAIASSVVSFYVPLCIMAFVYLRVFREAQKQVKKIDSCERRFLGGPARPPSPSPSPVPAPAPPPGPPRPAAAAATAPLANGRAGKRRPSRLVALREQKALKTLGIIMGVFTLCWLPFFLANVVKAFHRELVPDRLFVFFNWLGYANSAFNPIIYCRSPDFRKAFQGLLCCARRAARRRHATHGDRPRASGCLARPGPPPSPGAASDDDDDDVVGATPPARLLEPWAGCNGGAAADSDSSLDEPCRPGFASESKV

Row | SMILES | IC50 [1] [nM] | inhibition [2] [%] | inhibition [3] [%] | inhibition [4] [%] | inhibition [5] [%] | inhibition at 1 h, 10 µM [6] [%] | half-life [7] [h] | inhibition [8] [%] | inhibition [9] [%] | inhibition [10] [%] | Activity [11] | Activity [12] | inhibition [13] [%] | inhibition [14] | inhibition [15] [%] | inhibition [16] [%]
1 | COc1ccccc1N1CCN(c2nc3c(c(=O)[nH]2)CCCC3)CC1 | 20.5 |  |  |  |  |  |  |  |  |  |  |  |  |  |  | 
2 | O=c1[nH]c(N2CCC3(CC2)CN(CCO)c2cc(F)cc(F)c23)nc2c1CCCC2 |  | > 20 | > 20 | > 20 | > 20 | > 20 | 2.8 | > 20 | > 20 | > 20 | inactive | Non-Toxic | > 20 | Active | > 20 | > 20
